{
  "source": "paper PMC2642983",
  "about": "(AIDS (London, England), 2009)",
  "key": {"[1]": {"test_system": "HIV RNA in the CSF", "conditions": "over 3 weeks, all 13 participants receiving monotherapy; cited from earlier work"}, "[2]": {"experiment": "Population pharmacokinetic modelling", "assay_type": "in vivo, human", "conditions": "for CSF penetration (% of plasma concentration): modeled estimate"}, "[3]": {"test_system": "wild-type HIV", "conditions": "estimated with no protein (protein-free medium); cited from earlier work"}, "[4]": {"test_system": "HIV RNA in the CSF", "experiment": "Detectable HIV RNA in CSF by CSF atazanavir detectability", "assay_type": "in vivo"}, "[5]": {"test_system": "plasma proteins", "conditions": "no reference given; cited from earlier work"}, "[6]": {"conditions": "cited from earlier work"}, "[7]": {"conditions": "for CSF concentrations fold lower than plasma concentrations: even with ritonavir boosting"}, "[8]": {"conditions": "atazanavir with ritonavir, listed as atazanavir"}},
  "note": "Like-named read-outs stand apart in the source and are kept apart here. Marks after values point to notes of the source that are not given here.",
  "data": [
    {"molecule": "lopinavir/ritonavir", "values": [
      {"measurement": "change in CSF HIV RNA levels", "setting": "[1]", "value": "substantial declines in CSF HIV RNA levels"}
    ]},
    {"molecule": "COC(=O)N[C@H](C(=O)N[C@@H](Cc1ccccc1)[C@@H](O)CN(Cc1ccc(-c2ccccn2)cc1)NC(=O)[C@@H](NC(=O)OC)C(C)(C)C)C(C)(C)C", "note": "[Atazanavir, atazanavir]", "values": [
      {"measurement": "Intersubject variability of ke", "setting": "[2]; atazanavir with ritonavir", "value": 17, "unit": "%"},
      {"measurement": "Residual variability of CSF concentrations", "setting": "[2]; atazanavir with ritonavir", "value": 26, "unit": "%"},
      {"measurement": "Residual variability of plasma concentrations", "setting": "[2]; atazanavir with ritonavir", "value": 49, "unit": "%"},
      {"measurement": "oral clearance", "setting": "[2]; atazanavir with ritonavir, corresponds to ke and Vd/F", "value": 9.4, "unit": "L/h"},
      {"measurement": "Residual variability of CSF concentrations", "setting": "[2]; [8]", "value": 26, "unit": "%"},
      {"measurement": "Residual variability of plasma concentrations", "setting": "[2]; [8]", "value": 49, "unit": "%"},
      {"measurement": "CSF penetration (% of plasma concentration)", "setting": "[2]; atazanavir with ritonavir", "value": "0.0074 (0.74%)"},
      {"measurement": "CSF penetration (% of plasma concentration)", "setting": "[2]; [8]", "value": 0.74, "unit": "%"},
      {"measurement": "Vd/F", "setting": "[2]; human, plasma, oral", "value": 209, "unit": "L"},
      {"measurement": "half-life", "setting": "[2]; human, plasma, oral", "value": 15, "unit": "h"},
      {"measurement": "k el", "setting": "[2]; human, plasma, oral", "value": "1.25e-05", "unit": "s⁻¹"},
      {"measurement": "median (IQR) plasma concentration", "setting": "11 samples with no detectable CSF atazanavir but measurable plasma atazanavir", "value": "315 (280–432) ng/ml"},
      {"measurement": "estimated free concentration of atazanavir in plasma", "setting": "14% of 1510 ng/ml", "value": "approximately 210 ng/ml"},
      {"measurement": "plasma samples with undetectable atazanavir", "setting": "<0.13 μg/ml, 17 of 149 samples", "value": 11, "unit": "%"},
      {"measurement": "Median (interquartile range) plasma atazanavir concentration", "setting": "atazanavir alone, without ritonavir", "value": "523 (283–1344) ng/ml"},
      {"measurement": "median (IQR) plasma concentration", "setting": "corresponding to the 60 CSF samples with detectable atazanavir", "value": "1743 (925–2919) ng/ml"},
      {"measurement": "Median (interquartile range) plasma atazanavir concentration", "setting": "with concomitant ritonavir", "value": "1278 (525–2265) ng/ml"},
      {"measurement": "Median (range) plasma concentration", "setting": "with ritonavir 100 mg daily, 130 plasma samples", "value": "1278 (<128–5295) ^* ng/ml"},
      {"measurement": "Median (range) plasma concentration", "setting": "without ritonavir, 18 plasma samples, 300 or 400 mg atazanavir daily", "value": "523 (<128–6200) ng/ml"},
      {"measurement": "wild-type IC50", "setting": "[3]", "value": 1, "unit": "ng/mL"},
      {"measurement": "participants with measurable CSF HIV RNA", "setting": "[4]; 12/60 participants with more than 5 ng/ml atazanavir in the CSF, P = 0.13", "value": 20, "unit": "%"},
      {"measurement": "participants with detectable (>50 copies/ml) HIV RNA in the CSF", "setting": "[4]; seven of 19 participants with no measurable atazanavir in the CSF", "value": 37, "unit": "%"},
      {"measurement": "bound to plasma proteins", "setting": "[5]", "value": 86, "unit": "%"},
      {"measurement": "free (not bound to plasma proteins)", "setting": "[5]", "value": 14, "unit": "%"},
      {"measurement": "atazanavir CSF concentrations, average % of plasma concentrations", "setting": "[6]; in vivo", "value": 0.9, "unit": "%"},
      {"measurement": "CSF atazanavir concentrations as % of plasma concentrations", "setting": "[6]; seven HIV-infected patients", "value": "approximately 1%"},
      {"measurement": "CSF specimens with concentrations near the protein-free IC50 (<5 ng/ml)", "setting": "[7]; 11/67, after excluding probable nonadherence", "value": 16, "unit": "%"},
      {"measurement": "CSF samples with undetectable atazanavir", "setting": "[7]; <5 ng/ml, 19 of 79 samples", "value": 24, "unit": "%"},
      {"measurement": "observed CSF concentrations", "setting": "[7]; as summarised in the discussion", "value": 10, "unit": "ng/mL"},
      {"measurement": "CSF concentrations fold lower than plasma concentrations", "setting": "[7]", "value": "about 100 fold"},
      {"measurement": "CSF concentrations fold lower than plasma concentrations", "setting": "[7]; listed as atazanavir", "value": 100, "unit": "fold"},
      {"measurement": "Kp", "setting": "[7]; human, CSF, oral", "value": "< 0.01"},
      {"measurement": "Median (interquartile range) CSF concentration", "setting": "[7]; with ritonavir", "value": "10.3 (<5–21.1) ng/ml"},
      {"measurement": "Median (range) CSF concentration", "setting": "[7]; with ritonavir, 68 CSF samples", "value": "10.3 (<5–38) ^† ng/ml"},
      {"measurement": "Median (interquartile range) CSF concentration", "setting": "[7]; without ritonavir", "value": "7.9 (6.6–22) ng/ml"},
      {"measurement": "Median (range) CSF concentration", "setting": "[7]; without ritonavir, 11 CSF samples", "value": "7.9 (<5–40) ng/ml"}
    ]}
  ]
}
